In patent US10966970B2, “Fused tricyclic compounds and uses thereof in medicine” (SUNSHINE LAKE PHARMA CO., LTD., priority 2017, dated 2021):

Legend:
HBsAg secretion = assay: Inhibition of HBsAg secretion (ELISA); assay type: cell-based, HBV; settings: Hepatitis B virus, HepG2.2.15, 240 h, read-out: HbsAg IC50 (nM)
Description: (§1) The chromosomes of HepG2.2.15 cells (SELLS, PNAS, 1987 and SELLS, JV, 1988) integrate the complete HBV genome and stably express viral RNA and viral proteins. HepG2.2.15 cells are able to secrete mature HBV particles and HBsAg into the culture medium. Viral particle DNA and HBsAg secreted by HepG 2.2.15 cells can be quantified by qPCR and ELISA methods, and the effects of the compound on virus replication and HBsAg secretion are thus examined.
(§2) HepG 2.2.15 Cells (8,000 per well) were seeded into 96-well cell culture plates in duplicate and cultured for 3 days until the cells grew to fill in pores. Cells were treated with 4-fold serial diluted compound solution for 10 days, and the compound solution was exchanged once every other day, the final concentration of DMSO in all wells was 0.5% and DMSO was used as a drug-free control. On the eleventh day, the supernatant was collected for quantitative detection of HBsAg.
The level of HBsAg secreted by the cells after treatment with the compound was detected by ELISA. The method used a hepatitis B surface antigen diagnostic kit (Shanghai K ehua Biotechnology Co., Ltd. 510910113). 25 ≈L of the supernatant to be examined (diluted to 75 ≈L in PBS) was added to each well of the ELISA plate, and a kit-positive control and a negative control were set. The ELISA plates were blocked with mounting paper and incubated at 37 eC for 60 minutes. The ELISA plate was took out, and the mounting paper was removed, then 50 ≈L of enzyme conjugate was added into each well. After shaking for 10 seconds, the ELISA plates were blocked with mounting paper and incubated at 37 eC for 30 minutes. The ELISA plate was took out, and the mounting paper was removed, and the ELISA plate was repeated washing five times: liquid in the wells was discard each time; the wells was filled with washing solution, then stood for 60 seconds and spined dry; and liquid residue on blotting paper was patted dry. After the washing was completed, to all wells was immediately added a mixture of freshly prepared developer A and developer B: 100 ≈L per well. After shaking for 10 seconds on oscillator, the ELISA plates were blocked with mounting paper and incubated at 37 eC for 30 minutes. To all wells were added 50 ≈L of stop solution. Data were read at a wavelength of 450 nm on an Envision plate reader. Concentration-HBsAg OD450 value was treated with Graphpad Prism 5 software and the IC50 of inhibition of HBsAg secretion by compounds was calculated by a four-parameter nonlinear regression model.

HBV DNA replication = assay: Inhibition of HBV virus replication (HBV DNA in supernatant, qPCR); assay type: cell-based; settings: Hepatitis B virus, 240 h; HepG2.2.15 cells, 10 days treatment, supernatant HBV DNA by qPCR
Description: as §1
as §2, with “HBV DNA.” for “HBsAg.”
qPCR method was used for detection of viral genomic DNA, HBV primers were as follows: HBV-For-202, […]; HBV-Rev-315, […].
Using the SY BR Premix Ex Taq II—Takara DRR081S kit, 1 ≈L of the cell culture supernatant was used as a template, a plasmid containing the HBV genome was used for plotting a standard curve, and virus copy number was calculated using the standard curve. Concentration-virus copy number was treated with Graphpad Prism 5 software and the IC50 of inhibition of virus replication by compounds was calculated by a four-parameter nonlinear regression model.

| Structure (SMILES) | IC50 (HBsAg secretion) | IC50 (HBV DNA replication) |
| --- | --- | --- |
| COCCCOc1cc2c(cc1-c1cncs1)-c1cc(=O)c(C(=O)O)cn1C(C(C)C)C2 (centres unmarked) [Example 33, 6-isopropyl-9-(3-methoxypropoxy)-2-oxo-10-(thiazol-5-yl)-6,7-dihydro-2H-pyrido[2,1-a]isoquinoline-3-carboxylic Acid] | 3.08 nM | 1.93 nM |
| COC(=O)c1cc2c(cc1N1CCCC1)CC(C(C)C)n1cc(C(=O)O)c(=O)cc1-2 (centres unmarked) [Example 34, 6-isopropyl-10-(methoxycarbonyl)-2-oxo-9-(pyrrolidin-1-yl)-6,7-dihydro-2H-pyrido[2,1-a]isoquinoline-3-carboxylic Acid] | 9.85 nM | 4.74 nM |
| COCCCOc1cc2c(cc1C(=O)OCC(F)F)-c1cc(=O)c(C(=O)O)cn1C(C(C)C)C2 (centres unmarked) [Example 35, 10-((2,2-difluoroethoxy)carbonyl)-6-isopropyl-9-(3-methoxypropoxy)-2-oxo-6,7-dihydro-2H-pyrido[2,1-a]isoquinoline-3-carboxylic Acid] | 9.25 nM | 7.59 nM |
| C#CCOC(=O)c1cc2c(cc1OCCCOC)CC(C(C)C)n1cc(C(=O)O)c(=O)cc1-2 (centres unmarked) [Example 36, 6-isopropyl-9-(3-methoxypropoxy)-2-oxo-10-((prop-2-yn-1-yloxy)carbonyl)-6,7-dihydro-2H-pyrido[2,1-a]isoquinoline-3-carboxylic Acid] | 4.22 nM | 2.55 nM |
| COCCCOc1cc2c(cc1-c1ccccn1)-c1cc(=O)c(C(=O)O)cn1C(C(C)C)C2 (centres unmarked) [Example 67, 6-isopropyl-9-(3-methoxypropoxy)-2-oxo-10-(pyridin-2-yl)-6,7-dihydro-2H-pyrido[2,1-a]isoquinoline-3-carboxylic Acid] | 7.77 nM | 4.36 nM |
| CC(C)C1Cc2cc(N3CCCC3)c(-c3nccs3)cc2-c2cc(=O)c(C(=O)O)cn21 (centres unmarked) [Example 69, 6-isopropyl-2-oxo-9-(pyrrolidin-1-yl)-10-(thiazol-2-yl)-6,7-dihydro-2H-pyrido[2,1-a]isoquinoline-3-carboxylic Acid] | 15.2 nM | 10.2 nM |
| COC(=O)c1cc2c(cc1-c1ccc(Cl)s1)CC(C(C)C)n1cc(C(=O)O)c(=O)cc1-2 (centres unmarked) [Example 73, 9-(5-chlorothiophen-2-yl)-6-isopropyl-10-(methoxycarbonyl)-2-oxo-6,7-dihydro-2H-pyrido[2,1-a]isoquinoline-3-carboxylic Acid] | 12.7 nM | 3.88 nM |
| COC(=O)c1cc2c(cc1-c1ccc(Cl)o1)CC(C(C)C)n1cc(C(=O)O)c(=O)cc1-2 (centres unmarked) [Example 74, 9-(5-chlorofuran-2-yl)-6-isopropyl-10-(methoxycarbonyl)-2-oxo-6,7-dihydro-2H-pyrido[2,1-a]isoquinoline-3-carboxylic Acid] | 3.68 nM | 2.97 nM |
| COc1cc2c(cc1-c1nccs1)CC(C(C)C)n1cc(C(=O)O)c(=O)cc1-2 (centres unmarked) [Example 75, 6-isopropyl-10-methoxy-2-oxo-9-(thiazol-2-yl)-6,7-dihydro-2H-pyrido[2,1-a]isoquinoline-3-carboxylic Acid] | 2.41 nM | 2.1 nM |
| COc1cc2c(cc1-c1ncc(C(C)C)s1)CC(C(C)C)n1cc(C(=O)O)c(=O)cc1-2 (centres unmarked) [Example 77, 6-isopropyl-9-(5-isopropylthiazol-2-yl)-10-methoxy-2-oxo-6,7-dihydro-2H-pyrido[2,1-a]isoquinoline-3-carboxylic Acid] | 2.87 nM | 2.79 nM |
| COCc1csc(-c2cc3c(cc2OC)-c2cc(=O)c(C(=O)O)cn2C(C(C)C)C3)n1 (centres unmarked) [Example 78, 6-isopropyl-10-methoxy-9-(4-(methoxymethyl)thiazol-2-yl)-2-oxo-6,7-dihydro-2H-pyrido[2,1-a]isoquinoline-3-carboxylic Acid] | 3.26 nM | 2.84 nM |
| COc1cc2c(cc1-c1ccc(Cl)s1)CC(C(C)C)n1cc(C(=O)O)c(=O)cc1-2 (centres unmarked) [Example 79, 9-(5-chlorothiophen-2-yl)-6-isopropyl-10-methoxy-2-oxo-6,7-dihydro-2H-pyrido[2,1-a]isoquinoline-3-carboxylic Acid] | 2.95 nM | 2.01 nM |
| COc1cc2c(cc1-c1ncc(Br)s1)CC(C(C)C)n1cc(C(=O)O)c(=O)cc1-2 (centres unmarked) [Example 80, 9-(5-bromothiazol-2-yl)-6-isopropyl-10-methoxy-2-oxo-6,7-dihydro-2H-pyrido[2,1-a]isoquioline-3-carboxlic Acid] | 2.16 nM | 2.57 nM |
